Laboratory results published in patent publication US9138389B2, “Use of a jasmonic acid compound for treating greasy skin” (L'OREAL, priority 2009, dated 2015).

Tested on: greasy skin
Assay: in vivo panel test with a cosmetic composition on greasy skin
Conditions: cosmetic composition comprising the compound

CCCCCC1C(O)CCC1CC(=O)O (stereo not shown) [3-hydroxy-2-pentylcyclopentaneacetic acid]
efficacy for treating greasy skin: revealed the efficacy of the compound for treating greasy skin
